# Reference: patent US8491938B2, “Potent inhibitory effect of zinc in combination with sulforaphane on cancer cell growth” (University of Maryland, Baltimore, priority 2009, dated 2013)
# Where two headings read alike, the source gives them in different places.
# Key:
# Type in all cases: cell-based, human
# [1] = system: PC-3 cells; test: Mitochondrial membrane potential (MMP) detection, DiOC6(3)/PI flow cytometry, PC-3 cells; conditions: for effect on MMP alteration induced by zinc/SFN: PC-3, pretreatment 30 min, treatment 24 h; for effect on MMP versus control, single agent: PC-3, zinc alone or SFN 12 μM alone
# Description: Cell flow cytometric analysis with 3,3′-dihexyloxacarbocyanine iodide (DiOC6(3); Invitrogen, Carlsbad, Calif.) and propidium iodide (PI;BD Pharmingen, San Jose, Calif.) was used to evaluate MMP and apoptosis of the cells. The fluorescence dye DiOC6(3) is featured by its accumulation in the mitochondrial matrix, which is resulted from negative mitochondrial membrane potential within viable cells. Thus, the changes of fluorescence of DiOC6(3) reflect the MMP alteration of the cells. Another fluorescence dye PI is cell membrane impermeable and able to stain DNA once cell membrane integrity is damaged during apoptosis. In the experiments, after treatments, cells (2.5×10^5/ml) were incubated with 100 nM DiOC6(3) in PBS for 15 min at 37° C. Then the cells were washed in PBS once, followed by incubation with 2.5 μg/ml PI for additional 10 min at room temperature. The samples were subjected to cell flow cytometric analysis, and FACScan (Becton Dickinson) was used to analyze the fluorescence of DIOC6(3) and PI [2].
# [2] = system: PC-3 cells; test: ROS detection (carboxy-H2DCFDA, flow cytometry) in PC-3 cells; conditions: for effect on ROS production induced by zinc, SFN or zinc/SFN combination / effect on surge of ROS induced by zinc/SFN combination: PC-3, inhibitor 6 mM; for effect on ROS production induced by zinc, SFN or zinc/SFN combination: 30 min pretreatment, 6 h and 24 h; for effect on surge of ROS induced by zinc/SFN combination: 24 h of treatment; for increase of ROS levels: PC-3, SFN alone
# Description: 5-(and-6)-carboxy-2 ′,7 ′-dichlorodihydrofluorescein diacetate (carboxy-H2DCFDA,) was used to determine the intracellular ROS levels of individual cells. In living cells, this compound is oxidized and converted to the 2′,7′-dichlorofluoroscein (DCF) that is highly fluorescent. In the experiments, PC-3 cells cultured on 12-well plates were incubated in serum-free medium containing zinc sulfate ([…])/SFN (12 μM). Thirty min prior to the completion of the time course, carboxy-H2DCFDA was added at a final concentration of 5 μM. Cells were then collected and washed once with PBS. The fluorescent intensity of DCF was assayed by FACScan (Becton Dickinson)[3].
# [3] = system: PC-3 cells; test: MTT cell viability assay, PC-3 cells; conditions: for effect on growth inhibitory effect of zinc, SFN and their combination: PC-3, inhibitor 6 mM pretreatment; for effect on growth inhibitory effect of zinc, SFN and their combination / IC50: MTT; for IC50: PC-3 cells, single agent, read-out: 50% inhibitory concentration (IC50)
# Description: Two human prostatic cell lines were used: a) HPR-1, a cell line derived from normal human prostate epithelial cells (kindly provided by Dr. C. K. Choo, University of Hong Kong, Hong Kong, China); and b) PC-3, a human malignant prostate cell line (ATCC, Rockville, Md.). HPR-1 cells were cultured in keratinocyte medium supplemented with epidermal growth factor (EGF) ([…]) and bovine pituitary extracts (25 mg/500 ml) (Gibco BRL, Life Technologies, Bethesda, Md.). PC-3 cells were cultured in RPMI-1640 medium with 5% or 10% of fetal bovine serum (FBS), respectively. All media were supplemented with penicillin/streptomycin (1 U/ml, Invitrogen), and the cells were maintained at 37° C. in a humidified incubator with 5% CO2. The passages of the cell lines were within the range of 5-40. Once the cell density reached 50-60% confluence, the growth media were replaced by fresh serum/supplement-free medium for 24 h to synchronize cell growth. The cells were then treated with or without zinc sulfate (concentrations as indicated in the legends) in fresh serum/supplement-free medium for 0, 1, 3, 6, 12, and 24 h, respectively.
# (§1) Cell viability and proliferation were evaluated with the MTT assay. The cells were seeded at a density of 9×10^3 cells/well in a 96 well plate containing 100 μl culture medium/well. After attachment, cells were treated with or without zinc and/or SFN at various concentrations in serum/supplement free medium. After 24 h treatment, 10 μl MTT (5 mg/ml, sigma) was added into each well and incubated at 37° C. for 1 h. Then the medium was removed and 100 μl dimethyl sulfoxide (DMSO) was added to dissolve water-insoluble formazan crystals converted from water-soluble MTT by living cells. The color absorbency of formazan was detected at a wavelength of 540 nm using a microplate reader (Molecular Devices).
# [formula] experiments were designed by a statistics-based method utilizing the maximal power design developed by Fang and Tan(2003, 2008) and the corresponding SynStat version 1.beta software (http://www.umgcc.org/research/biostat_software.htm), This method uses uniform measures maximizes the minimum power of the F-test to detect departures from the additive action of drugs. […] With the information from experiments of single agents, SynStat derived 21 mixtures of the two agents and 6 replicates at each mixture based on the pooled variations in single agent experiments, which have 80% statistical power to detect at least a 15% difference in viability between the predicted additive values and the observed values at a significance level of 5%. Then, cells are exposed to these 21 mixtures and the cytotoxicity of this combination is determined. Upon completion of the experiments, we use the F-statistic given by Tan et al. (2003) to test the hypothesis of the additive action of two agents and calculate the p-value of the F-test. If the p-value is greater than 0.05, we can accept the hypothesis of the additive action of two agents. Otherwise, we calculate the interaction index (τ), which is proposed by Berenbaum who adopted the Lowe additivity model (Berenbaum, 1977) where, for a given cytotoxic effect, xA and xB are the concentrations of zinc and SFN in the combination, and XA and XB are the concentrations of zinc and SFN respectively that achieve the same cytotoxic effect when given alone. A τ value of 1 indicates additivity; τ<1 indicates synergy, and τ>1 indicates antagonism.
# [4] = system: MT1/2; test: Western blot of MT1/2 expression in HPR-1 cells; conditions: zinc at 24 h, SFN at 6 h and 24 h
# Description: (§2) Total cellular proteins from the experimental samples were extracted by radioimmuno-precipitation assay (RIPA) lysis buffer (Upstate, Lake Placid, N.Y.) containing protease inhibitor (Roche Diagnostics Gmbh, Mannheim, Germany). The protein extracts (30 μg/lane) were applied to electrophoresis on an SDS-polyacrylamide gel, and then, a transferred poly(vinylidene fluoride) (PVDF) membrane (Millipore, Billerica, Mass.) was blocked in 5% nonfat dry milk in phosphate buffered saline (PBS) containing 0.05% Tween-20 (Sigma, St. Louis, Mo.) (PBST) for 1 hr at room temperature followed by the hybridization to the primary antibodies against PARP (BD pharmingen, San Jose, Calif.), caspase 3 (BD pharmingen, San Jose, Calif.), p-JNK and JNK1 (Santa Cruz, Calif.), pP38 and P38 (Cell Signaling Technology, Danvers, Mass.), ppERK1/2 (Sigma, St. Louis, Mo.), ERK1/2 (Cell Signaling Technology, Danvers, Mass.) at 4° C. overnight. After washing, the membranes were incubated with corresponding second antibodies. Beta-actin (Sigma, St. Louis, Mo.) and GAPDH (Cell Signaling Technology, Danvers, Mass.) were used as internal controls to monitor the sample loadings. […] The signals of targeted bands were scanned and quantified with an LKB Ultra Scan XL laser densitometer (Image Quant, Molecular Dynamics, Sunnyvale, Calif.).
# [5] = system: p38; test: Western blot of p38 activation in PC-3 cells; conditions: PC-3, 6 h treatment, versus control
# Description: as §2
# [6] = system: cytochrome c, pro-caspase 3 and PARP; test: Western blot of apoptosis proteins in PC-3 cells; conditions: PC-3, zinc 12.5 μM or SFN 12 μM alone, 24 h
# Description: as §2, with “Calif.). […]” for “Calif.).”
# [7] = system: MT1/2; test: Western blot of MT1/2 expression in PC-3 cells; conditions: zinc at 24 h, SFN and combination at 6 and 24 h
# Description: as §2
# [8] = system: HPR-1 cells; test: MTT cell viability assay, HPR-1 cells
# Description: as §1, with “Two human prostatic cell lines were used: a) HPR-1, a cell line derived from normal human prostate epithelial cells (kindly provided by Dr. C. K. Choo, University of Hong Kong, Hong Kong, China); and b) PC-3, a human malignant prostate cell line (ATCC, Rockville, Md.). HPR-1 cells were cultured in keratinocyte medium supplemented with epidermal growth factor (EGF) ([…]) and bovine pituitary extracts (25 mg/500 ml) (Gibco BRL, Life Technologies, Bethesda, Md.). […] The passages of the cell lines were within the range of 5-40. […] Cell” for “Cell”
Compound,effect on MMP alteration induced by zinc/SFN [1],"effect on ROS production induced by zinc, SFN or zinc/SFN combination [2]",effect on surge of ROS induced by zinc/SFN combination [2],"effect on growth inhibitory effect of zinc, SFN and their combination [3]",MT1/2 protein levels [4],phosphorylation of p38 [5],"effect on MMP versus control, single agent [1]","apoptotic effect (cytochrome c, pro-caspase 3, PARP), single agent [6]",MT1/2 protein levels [7],"increase of ROS levels ([2]; late time points (12 to 24 h), first value)","increase of ROS levels ([2]; late time points (12 to 24 h), second value) [%]","IC50 ([3]; Homo sapiens, 24 h) [µM]","HPR-1 cells still alive (plateau) ([8]; SFN 25 μM and even higher, 24 h) [%]","response of HPR-1 cells to lower concentration of SFN ([8]; SFN <10 μM, 24 h)","proliferation of HPR-1 cells ([8]; SFN at the range of 10 to 25, 24 h, less effective than in PC-3 cells)","increase of ROS level ([2]; PC-3, zinc alone, late time points (12 to 24 h))",IC50 ([3]; 24 h) [µM],"PC-3 cells that could survive ([3]; zinc 30 μM, 24 h)","HPR-1 cells still alive ([8]; zinc 30 μM, 24 h)","response of HPR-1 cells to zinc ([8]; zinc alone at doses of the six selected combinations, 24 h)"
"N[C@@H](CCC(=O)N[C@@H](CS)C(=O)NCC(=O)O)C(=O)O [GSH, reduced glutathionein]",completely prevented,significantly inhibited ROS production,completely abolished,concordantly abolished,,,,,,,,,,,,,,,,
"CC(=O)N[C@@H](CS)C(=O)O [NAC, N-Acetyl Cysteine]",completely prevented,significantly inhibited ROS production,completely abolished,concordantly abolished,,,,,,,,,,,,,,,,
"C[S+]([O-])CCCCN=C=S (centres unmarked) [SFN, 1-Isothiocyanato-4-methylsulfinylbutane]",,,,,decreased expression of MT1/2,increased phosphorylation of p38,did not affect MMP at all,lack of cell responses,no effect or a slight inhibition,about 35%,~55,20.3 ± 0.8,60,no response,inhibited in a dose-dependent pattern,,,,,
"O=S(=O)([O-])[O-].[Zn+2] [zinc, zinc sulfate]",,,,,induce expression of MT1/2 significantly,increased phosphorylation of p38,increase one fold,lack of cell responses,significant induction,,,,,,,40-50%,16.2 ± 0.9,less than 20%,around 90%,no response
